Values joined by “and” are separate entries in the source; they are usually repeats but may differ in a detail not shown here. Identical values can stand only once.
Key:
[1] = tested on: gastric ulceration in cold restraint rats; experiment: Cold restraint (stress) induced ulcers; format: in vivo, albino rats; parameters: Ulcer index Mean(SE): scale not given here; details: rats, 4° C. for 2 hours
Method in brief: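 Albino rats, fasted 48 h with free water, dosed orally with compound at 25 mg/kg or at 50, 25, 15, 10 and 5 mg/kg in 1% Tween 80 vehicle. Water removed 1 h before restraint at 4° C for 2 h. Sacrificed 2 h after stress; stomachs opened along greater curvature and scored as mean ulcer index.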

[2] = tested on: ethanol induced gastric ulcers; experiment: Ethanol induced ulcers; format: in vivo, albino rats; details: rats, ethanol challenge; for Acidity Total mEg / Gastric content / pH: 4 hours after pylorus ligation
Method in brief: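 Rats in groups of 6, fasted 48 h, given Tween 80 (1%) vehicle, reference drugs, or test compounds at 25 mg/kg; lesions induced 1 h after ethanol challenge. Pylorus ligated under ether; 4 h later gastric contents centrifuged and total acid titrated with 0.01N NaOH.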

With `COC(=O)C1OC(Oc2cc3oc(-c4ccccc4)cc(=O)c3cc2OC)C(O)C(O)C1O` (stereo not shown) [OA-5, 3,4,5-trihydroxy-6-(6-methoxy-4-oxo-2-phenyl-4-H-chromen-7-yoloxy) tetrahydro-pyran-2-carboxylicacid methyl ester] the Inhibition % ([1]; 5 mg/kg per orally) was 31.55%, the “Ulcer index Mean(SE)” value ([1]; 5 mg/kg per orally) was 27.5 and the Inhibition % ([1]; 10 mg/kg per orally) was 41.92%. The “Ulcer index Mean(SE)” value ([1]; 10 mg/kg per orally) was 23.33, the Inhibition % ([1]; 15 mg/kg per orally) was 50.14% and the “Ulcer index Mean(SE)” value ([1]; 15 mg/kg per orally) was 19.99. The Inhibition % ([1]; 25 mg/kg per orally) was 75.45%, the “Ulcer index Mean(SE)” value ([1]; 25 mg/kg per orally, 25 mg/kg) was 9.997 and 9.99 and the Inhibition % ([1]; 50 mg/kg per orally) was 78.22%. The “Ulcer index Mean(SE)” value ([1]; 50 mg/kg per orally) was 8.75, the Inhibition % ([2]; 5 mg/kg) was 30.01% and the “Ulcer index Mean(SE)” value ([2]; 5 mg/kg) was 46.66 (±0.80). The “Acidity Total mEg” value ([2]; 5 mg/kg) was 42.66 (±3.95) m Eg, the Gastric content ([2]; 5 mg/kg) was 4.0 (±0.45) and the pH ([2]; 5 mg/kg) was 3.5 (±0.40). For the same molecule, the Inhibition % ([2]; 10 mg/kg) was 35.00%, the “Ulcer index Mean(SE)” value ([2]; 10 mg/kg) was 43.33 (±5.40) and the “Acidity Total mEg” value ([2]; 10 mg/kg) was 31.33 (±1.36) m Eg. The Gastric content ([2]; 10 mg/kg) was 4.2 (±0.07), the Inhibition % ([2]; 15 mg/kg) was 60.61% and the “Ulcer index Mean(SE)” value ([2]; 15 mg/kg) was 26.66 (±4.71). For the same molecule, the “Acidity Total mEg” value ([2]; 15 mg/kg) was 29.66 (±1.36) m Eg, the Gastric content ([2]; 15 mg/kg) was 4.0 (±0.82) and the pH ([2]; 15 mg/kg) was 4.5 (±0.13). The Inhibition % ([2]; 25 mg/kg) was 82.50%, the “Ulcer index Mean(SE)” value ([2]; 25 mg/kg) was 11.66 (±4.47) and the “Acidity Total mEg” value ([2]; 25 mg/kg) was 12.40 (±2.30) mEg. The Gastric content ([2]; 25 mg/kg) was 5.5 (±0.30), the pH ([2]; 25 mg/kg) was 6.81 (±0.26) and the Inhibition % ([2]; 50 mg/kg) was 85.00%. The “Ulcer index Mean(SE)” value ([2]; 50 mg/kg) was 10.00 (±6.23), the “Acidity Total mEg” value ([2]; 50 mg/kg) was 18.25 (±7.10) mEg and the Gastric content ([2]; 50 mg/kg) was 7.4 (±0.72). For the same molecule, the pH ([2]; 50 mg/kg) was 4.95 (±0.43).

From patent US7855200B2, “Method for treatment of gastric ulcers and ulcers induced by aspirin” (Council of Scientific and Industrial Research, priority 2006, dated 2010)
